Data from patent publication US5541199A, “Chroman-2-ylmethylamino derivatives” (American Home Products Corporation, priority 1995, dated 1996).

Legend:
[1] = tested on: α1; experiment: α1 IC50; format: binding
[2] = molecular target: T1, D2 (Rattus norvegicus, UniProt P61169); experiment: Affinity for the dopamine autoreceptor: 3H-quinpirole (Quin.) binding, homogenized rat striatal brain tissue; parameters: homogenized rat striatal brain tissue; from tissue; host or cells: rat striatal brain tissue, homogenized
[3] = molecular target: T1, D2; experiment: Affinity for the dopamine D-2 receptor: 3H-spiroperidol (Spiper.) binding, homogenized limbic brain tissue; parameters: homogenized limbic brain tissue is incubated with; from tissue; host or cells: limbic brain tissue, homogenized
[4] = molecular target: T2, 5-HT1a (Homo sapiens, UniProt P08908); experiment: 5-HT1a IC50; format: binding
T2 sequence (P08908 1-422): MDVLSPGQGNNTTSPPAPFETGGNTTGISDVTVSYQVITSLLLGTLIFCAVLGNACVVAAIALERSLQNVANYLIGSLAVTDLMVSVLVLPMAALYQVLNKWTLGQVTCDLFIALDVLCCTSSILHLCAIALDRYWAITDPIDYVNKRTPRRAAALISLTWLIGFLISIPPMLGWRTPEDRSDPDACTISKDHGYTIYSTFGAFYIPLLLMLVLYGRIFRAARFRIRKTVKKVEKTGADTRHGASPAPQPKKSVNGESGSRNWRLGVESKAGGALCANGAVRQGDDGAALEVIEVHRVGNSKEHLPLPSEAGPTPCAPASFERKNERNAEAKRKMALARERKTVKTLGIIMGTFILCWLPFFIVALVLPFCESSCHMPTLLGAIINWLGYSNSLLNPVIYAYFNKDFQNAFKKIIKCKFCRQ

T1 sequence (P61169 whole entry): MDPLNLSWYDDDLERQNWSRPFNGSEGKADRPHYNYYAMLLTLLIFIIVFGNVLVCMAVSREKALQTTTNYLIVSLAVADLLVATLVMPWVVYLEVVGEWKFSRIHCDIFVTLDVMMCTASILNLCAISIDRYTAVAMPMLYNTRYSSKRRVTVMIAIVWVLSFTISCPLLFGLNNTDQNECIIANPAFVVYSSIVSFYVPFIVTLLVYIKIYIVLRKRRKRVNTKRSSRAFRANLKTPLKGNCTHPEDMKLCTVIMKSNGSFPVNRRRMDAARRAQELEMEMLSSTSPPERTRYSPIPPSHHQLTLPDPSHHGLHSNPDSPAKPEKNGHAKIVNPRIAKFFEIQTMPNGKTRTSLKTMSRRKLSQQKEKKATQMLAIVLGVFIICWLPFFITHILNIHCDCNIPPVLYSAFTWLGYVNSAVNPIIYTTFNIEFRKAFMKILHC

Q: `O=C1CCC(=O)N1CCCNCC1CCc2ccc(O)cc2O1` (centres unmarked) [Example 3d, 1-{3-[(7-Hydroxy-chroman-2-ylmethyl)-amino]-propyl}-pyrrolidine-2,5-dione] was tested. Which IC50 [1] did it give?
A: 277 nM

Q: What about the IC50 ([2]; 3H-quinpirole, rat striatal brain tissue) of the same compound?
A: 9.29 nM

Q: And the Ratio ([2]; not defined in print, values match D2 Spiper. IC50 / D2 Quin. IC50)?
A: 234

Q: And the IC50 [3]?
A: 2180 nM

Q: What about the IC50 [4] of the same compound?
A: 303 nM
